Assay results reported in PMC9842066, “Implantable device actuated by manual button clicks for noninvasive self‐drug administration” (Bioengineering & Translational Medicine, 2022).

Tests used:
[1] = tested on: STZ-induced diabetic rats; assay: PD studies on insulin and glucagon delivery (plasma glucose); type: in vivo, Wistar rats; conditions: hyperglycemic STZ-induced Type 1 diabetic rats (>400 mg dl^−1); 1-U insulin by SC injection or BCD; n = 4 per group
Description: For this experiment, we employed a Type 1 diabetic animal model, streptozotocin (STZ)‐induced diabetic rats.[26], [28] To induce this animal model, Wistar rats were fasted overnight, and then intraperitoneally injected with a STZ solution (60 mg kg^−1) prepared in 0.09 M citrate buffered saline (pH 4.0) to destroy the beta‐cells of the pancreas. Three days after the STZ injection, the plasma glucose level was measured with a glucometer, and the animals with a plasma glucose level > 400 mg dl^−1 were screened for use. Among them, we employed two distinct animal models of hyperglycemia and hypoglycemia, respectively. For a hyperglycemic condition, the animals were used as they were with a blood glucose level of >400 mg dl^−1.[28], [29] For a hypoglycemic condition, the animals were fasted overnight and the ones with a plasma glucose level of <72 mg dl^−1 were screened for use.[30] The hyperglycemic animals were treated with 1‐U insulin by an SC injection or implanted BCD: Inj‐Insulin (n = 4) and BCD‐Insulin (n = 4), respectively. For this, we utilized a commercially available insulin solution (100 U ml^−1; NovoRapid, Novo Nordisk). […] After administration, the plasma glucose level was measured with a glucometer at scheduled times.

[2] = Stability assessment of exenatide and insulin in the BCD
Description: Supplementary Figure 5. […] To obtain the CD spectra, the solution was placed in a 1-mm path length cuvette (Chirascan plus, Applied Photophysics, Surrey, UK) and scanned over range of 200-260 nm.

## insulin: commercially available insulin solution (100 U ml^−1; NovoRapid, Novo Nordisk)
[1]
  Change in plasma glucose level after insulin: decrease
[2]; 4 weeks, Figure S5
  Stability during 4-week period in the BCD: well retained
[2]; insulin stored in BCD at 37 °C for 28 days, injected subcutaneously to diabetic animals, n = 3
  Drop of blood glucose level with stored versus fresh insulin: similar
[2]; loaded BCDs stored at 37 °C for 28 days, versus fresh drug solution, n = 3, HPLC and CD 200-260 nm
  Drug content (HPLC) and far-UV CD spectra after incubation in the BCD: did not vary
